Experimental data from ChEMBL document CHEMBL1130640, “Lactate cannot substitute for alanine in d4T-based anti-HIV nucleotide prodrugs--despite efficient esterase-mediated hydrolysis” (Bioorg Med Chem Lett, 1998).

How the values were obtained:
Conditions in all cases: Homo sapiens
[1] = test system: CEM-TK(-); test: Compound was tested for anti-HIV-2 activity in CEM/TK- cell line.; format: functional, cell-based
[2] = test system: CCRF-CEM; test: Compound was tested for anti-HIV-2 activity in CEM/0 cell line.; format: functional, cell-based
[3] = test system: CCRF-CEM; test: Compound was tested for anti-HIV-1 activity in CEM/0 cell line.; format: functional, cell-based
[4] = test system: CCRF-CEM; test: Compound was tested for cytostatic activity in CEM cell line.; format: functional
[5] = test system: CEM-TK(-); test: Compound was tested for anti-HIV-2 activity in CEM/TK- cell line; format: functional, cell-based
[6] = test system: CCRF-CEM; test: Compound was tested for anti-HIV-1 activity in CEM/0 cell line; format: functional, cell-based
[7] = test system: CCRF-CEM; test: Compound was tested for cytostatic activity in CEM cell line; format: functional
[8] = test system: CCRF-CEM; test: Compound was tested for anti-HIV-2 activity in CEM/0 cell line; format: functional, cell-based

SMILES: CCOC(=O)C(C)OP(=O)(OCC1C=CC(n2cc(C)c(=O)[nH]c2=O)O1)Oc1ccccc1 (centres undefined)
- EC50 [1]: 160 µM
- EC50 [2]: 23 µM
- EC50 [3]: 28 µM
- CC50 [4]: > 250 µM

SMILES: CCOC(=O)COP(=O)(OCC1C=CC(n2cc(C)c(=O)[nH]c2=O)O1)Oc1ccccc1 (centres undefined)
- EC50 [1]: 150 µM
- EC50 [2]: 12.5 µM
- EC50 [3]: 12.5 µM
- CC50 [4]: ≥ 250 µM

SMILES: COC(=O)C(C)OP(=O)(OCC1C=CC(n2cc(C)c(=O)[nH]c2=O)O1)Oc1ccccc1 (centres undefined)
- EC50 [1]: > 250 µM
- EC50 [2]: 5 µM
- EC50 [3]: 4 µM
- CC50 [4]: ≥ 250 µM

SMILES: COC(=O)COP(=O)(OCC1C=CC(n2cc(C)c(=O)[nH]c2=O)O1)Oc1ccccc1 (centres undefined)
- EC50 [1]: > 250 µM
- EC50 [2]: 50 µM
- EC50 [3]: 27.5 µM
- CC50 [4]: > 250 µM

SMILES: COC(=O)C(C)NP(=O)(OC[C@@H]1C=C[C@H](n2cc(C)c(=O)[nH]c2=O)O1)Oc1ccccc1 (some centres undefined)
- EC50 [1]: 0.075 µM
- CC50 [4]: > 100 µM

SMILES: COC(=O)CNP(=O)(OCC1C=CC(n2cc(C)c(=O)[nH]c2=O)O1)Oc1ccccc1 (centres undefined)
- EC50 [1]: 7 µM
- CC50 [4]: ≥ 250 µM

SMILES: Cc1cn([C@H]2C=C[C@@H](CO)O2)c(=O)[nH]c1=O [STAVUDINE]
- EC50 [5]: > 100 µM
- EC50 [6]: 0.25 µM
- CC50 [7]: > 100 µM
- EC50 [8]: 1.2 µM
